Columns and labels:
[1] = Intrinsic clearance with human liver microsomes; assay type: in vitro ADME; conditions: human liver microsomes 1 mg protein/ml, NADPH, pH 7.4
Protocol: Determination of Intrinsic Clearance with Human Liver Microsomes
Frozen human liver microsomes (BD Gentest, Oxford) were defrosted and were then diluted with 0.1 M pH 7.4 phosphate buffer at 4° C. to 1 mg protein/ml. 0.45 mL aliquots of the microsome suspension were dispensed into flat-bottomed vials (1 per compound) and were allowed to come to room temperature (5 min). During the warming time, 5 μL of solution of each test compound (typically 100 μM in DMSO) was dispensed into separate vials resulting in a final DMSO concentration of 1%. 50 μL of a 10 mM solution of NADPH in phosphate buffer (0.1 M pH 7.4, 37° C.) was added to each vial to initiate metabolism.
50 μL Aliquots of the mixtures were removed at measured intervals and were immediately quenched by addition to 100 μL of methanol cooled in ice. The quenched samples were kept cold (at −20° C. or less) for at least 1 h and were then centrifuged to remove protein
The supernatant solution was analysed using quantitative LCMS for the presence of test compound. From the concentrations of test compound at different time points a T1/2 may be calculated which may be converted to an intrinsic clearance using the equation: CLint=ln 2/T1/2.

[2] = biological target: T1, human recombinant CCR3 receptors (Homo sapiens, UniProt P51677); assay: Compound affinity at human recombinant CCR3 receptors by radioligand competition, CHO-K1 cell membranes; assay type: binding; conditions: mean of minimum 2 experiments; Cheng-Prussof correction of pIC50; 2 nM [3H] radioligand, 2 h at 37° C.; read-out: CCR3 pKi (converted)
T1 construct: expressed in transfected cells
T1 sequence (P51677 1-355): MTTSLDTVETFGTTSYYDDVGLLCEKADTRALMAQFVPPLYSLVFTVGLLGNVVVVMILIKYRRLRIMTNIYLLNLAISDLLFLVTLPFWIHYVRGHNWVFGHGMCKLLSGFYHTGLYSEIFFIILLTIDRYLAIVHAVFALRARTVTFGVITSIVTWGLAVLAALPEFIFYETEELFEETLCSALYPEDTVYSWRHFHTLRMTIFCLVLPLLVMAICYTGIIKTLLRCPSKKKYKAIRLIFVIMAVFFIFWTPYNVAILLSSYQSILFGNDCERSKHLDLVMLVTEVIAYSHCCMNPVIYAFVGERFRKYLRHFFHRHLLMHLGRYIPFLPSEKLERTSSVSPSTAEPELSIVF
Protocol: Determination of Compound Affinity at Human Recombinant CCR3 Receptors Assessed by Competition Of [^3H]-4-(2,4-dichloro-3-methylphenoxy)-1′-[4-(methylsulfonyl)benzoyl]-1,4′-bipiperidine for CHO-K1 Cell Membranes In Vitro
Membranes, prepared from CHO-K1 cells stably expressing recombinant human CCR3, suspended in assay buffer (50 mM Tris-Base, pH 7.4; containing sodium chloride (100 mM) and magnesium chloride (2 mM)) were incubated in the presence of 2 nM [^3H]-4-(2,4-dichloro-3-methylphenoxy)-1′-[4-(methylsulfonyl)benzoyl]-1,4′-bipiperidine, along with vehicle (1% (v/v) DMSO), 4-(4-chloro-3-methylphenoxy)-1′-[2-(methylsulfonyl)benzoyl]-1,4′-bipiperidine (to define non-specific binding) or test compound for 2 h at 37° C. in round bottomed 96-well plates. The plates were then filtered onto GF/B filter plates, pre-soaked for 1 hour in plate-coating solution (0.3% (w/v) polyethylenimine, 0.2% (w/v) BSA in de-ionised water), using a 96-well plate Tomtec cell harvester. Four washes (250 μL) with wash buffer (50 mM Tris-Base, pH 7.4 containing sodium chloride (500 mM) and magnesium chloride (2 mM)) were performed at 4° C. to remove unbound radioactivity. Plates were dried and MicroScint-O (50 μL) was added to each well. The plates were sealed (TopSeal A) and filter-bound radioactivity was measured with a scintillation counter (TopCount, Packard BioScience) using a 1 minute counting protocol.
Specific binding was determined from values of the control wells minus the values for the NSB wells for each assay plate. pIC50 values were calculated using a four parameter logistic fit (where pIC50 is defined as the negative logarithm of the concentration of compound required for 50% reduction in specific [^3H]-4-(2,4-dichloro-3-methylphenoxy)-1′-[4-(methylsulfonyl)benzoyl]-1,4′-bipiperidine binding). Data were presented as mean pKi values (calculated by applying a Cheng-Prussof correction to pIC50 values) from a minimum of 2 separate experiments.

| CLint scaled at 1 µM [1] [mL/min/kg] | Ki [2] [nM] | Compound |
| --- | --- | --- |
| < 3 | 63.1 | O=C(CCc1ccc(C(=O)O)cc1)NC1CCN(Cc2ccc(Cl)c(Cl)c2)CC1 [Example 2, 4-{2-[1-(3,4-Dichloro-benzyl)-piperidin-4-ylcarbamoyl]-ethyl}-benzoic acid] |
| < 3 | 79.4 | O=C(CCc1cccc(C(=O)O)c1)NC1CCN(Cc2ccc(Cl)c(Cl)c2)CC1 [Example 4, 3-{2-[1-(3,4-Dichloro-benzyl)-piperidin-4-ylcarbamoyl]-ethyl}-benzoic acid] |
| < 3 | 15.8 | O=C(CCc1ccc2cc(C(=O)O)ccc2c1)NC1CCN(Cc2ccc(Cl)c(Cl)c2)CC1 [Example 6, 6-{2-[1-(3,4-Dichloro-benzyl)-piperidin-4-ylcarbamoyl]-ethyl}-naphthalene-2-carboxylic acid] |

Source: patent publication US20090012125A1, “Piperidine Derivatives, Their Process for Preparation, Their Use as Therapeutic Agents and Pharmaceutical Compositions Containing Them” (priority 2006, published 2009)
